Results taken from patent publication US5591758A, “Organic nitrates, processes for their preparation and their use in the treatment of cardiovascular diseases” (Laboratoires Hoechst, SA, priority 1991, dated 1997).
Counter-ions that a name gives are not always drawn.

How the values were obtained:
[1] = tested on: thoracic aorta; assay: Vasorelaxant effect on isolated vessels (rat thoracic aorta rings without endothelium, precontracted with noradrenalin); parameters: species or system Wistar rats; conditions: for Emax: Rattus norvegicus, maximum inhibition of noradrenalin effect, 10^-8 to 10^-4 M substance, read-out: Maximum Relaxation; for IC50: rat aorta, 10^-7 M noradrenalin contraction
Description: Vasorelaxant effect of the compounds according to the invention on isolated vessels.
Adult Wistar rats weighing between 250 and 350 g are anaesthetised by intraperitoneal injection of sodium pentobarbital (30 mg/kg). The thoracic aorta is rapidly removed and placed in a refrigerated and oxygenated solution of bicarbonate buffer of the Krebs-Ringer type (composition [mM]: NaCl, 118; KCl, 4.7; CaCl2, 2.5; MgSO4, 1.2; KH2 PO4, 1.2; NaHCO3, 25.0; disodium calcium salt of EDTA, 0.026; glucose 11.1). The aorta is dissected with the aim of removing the connective tissue and then cut into 6 rings (length 5-10 mm). The endothelium is removed by moderate abrasion of the intimal surface of the aortic segments with the aid of a pair of tweezers. These segments are then placed between two hooks in an isolated organ cell filled with 25 ml of bicarbonate buffer (pH 7.4), thermostat-controlled at 37° C. and oxygenated with the aid of a 95% O2 /5% CO2 mixture (pH 7.4). One of the hooks is fixed to a fixed point, while the second is connected to a transducer with the aim of measuring the variations in isometric voltage (expressed in grams). After an equilibration period of 30 min., the segments are progressively withdrawn so as to attain the level of base voltage for which the contractor response to noradrenalin (10^-7 M) is maximum (optimum voltage; average 2 g). The absence of endothelium is verified by addition of a single concentration of acetylcholine (10^-6 M), after precontraction of the vessels by noradrenalin (10^-7 M). The integrity of the vascular smooth muscle is also verified by adding a single concentration of a vasodilator whose response is independent of the presence of the endothelium, SIN-1 (10^-5 M). After this initial procedure, the aortas are washed, equilibrated for a period of 30 min and then recontracted (10^-7 M noradrenalin). The relaxant effect of the substance to be tested is then evaluated by adding increasing concentrations of this substance (from 10^-8 to 10^-4 M). The maximum inhibition of the concentration caused by noradrenalin (expressed as a percentage) is then calculated ("maximum relaxation"). When this maximum relaxation is greater than 50%, the concentration of substance tested producing a 50% inhibition of the maximum contraction (IC50) is calculated. Table V below collates the IC50 and the maximum relaxation percentages for the various compounds tested.

[2] = tested on: anesthetised dogs; assay: Haemodynamic effects on anesthetised dogs; type: in vivo, dogs (labrador/harrier cross); conditions: dogs
Description: Haemodynamic effects of the compounds according to the invention on anesthetised pigs or dogs
The dogs, weighing between 16 and 26 kg, are the progeny of a labrador/harrier cross.
In the case of dogs the anesthesia is induced by sodium pentobarbitol (45 mg/jg i.v.) and maintained with an i.v. perfusion (flow rate of 8 mg/kg/h).
The pigs or dogs are placed under artificial respiration in ambient air. Analysis of the blood gases (pO2, pCO2) is carried out at regular intervals and oxygen can be supplied via the respirator, if necessary.
The haemodynamic parameters recorded include the left ventricular pressure (LVP; Millar PC350 Tip catheter inserted via the carotid artery), systemic blood pressure (BPs, BPd; full catheter in a femoral artery), the end pressure of the left ventricular diastole (LVEDP), the ventricular contractility (LVPdp/dtmax) and the heart rate (HR).
Following an equilibration period of the order of 45 minutes, the compounds studied are administered intraduodenally (i.d.) or intraveinously (i.v.) to several animals (1 to 4). The haemodynamic variables are recorded continuously for 1 to 3 hours, as a function of the period of action of the compound.
The effects of the compounds studied are shown as the absolute difference with respect to the base value (bv) measured before administration of the compounds and are shown in Table VII (a,b,c).
An antianginal activity is estimated by a fall in the BPs and the LVEDP (fall in venous return).

| SMILES | Emax [1] [%] | IC50 [1] [µM] | BPs (min), period of action ([2]; 3 mg/kg i.v.) [min] | BPs, difference to base value ([2]; 3 mg/kg i.v.) [mmHg] | LVEDP (min), period of action ([2]; 3 mg/kg i.v.) [min] | LVEDP, difference to base value ([2]; 3 mg/kg i.v.) | BPs (min), period of action ([2]; 3 mg/kg i.d.) [min] | BPs, difference to base value ([2]; 3 mg/kg i.d.) [mmHg] | LVEDP (min), period of action ([2]; 3 mg/kg i.d.) [min] | LVEDP, difference to base value ([2]; 3 mg/kg i.d.) |
| --- | --- | --- | --- | --- | --- | --- | --- | --- | --- | --- |
| CC(C)(C)OC(=O)NCC(=O)O[C@H]1CO[C@H]2[C@@H]1OC[C@H]2O[N+](=O)[O-] [Compound 1, N-[(t-Butoxy)carbonyl]glycine ester of 5-O-nitro-1,4:3,6-dianhydro-D-glucitol] | 83 | 32 | 10 | 5 | 10 | 1,0 mmHg |  |  |  |  |
| NCC(=O)O[C@H]1CO[C@H]2[C@@H]1OC[C@H]2O[N+](=O)[O-] [Compound 2, Glycine ester of 5-O-nitro-1,4:3,6-dianhydro-D-glucitol monohydrochloride] | 52 | 100 | > 120 | -10 | > 120 | -1,0 mmHg |  |  |  |  |
| NCC(=O)O[C@@H]1CO[C@H]2[C@@H]1OC[C@@H]2O[N+](=O)[O-] [Compound 3, Glycine ester of 2-O-nitro-1,4:3,6-dianhydro-D-glucitol monohydrochloride] | 63 | 79 |  |  |  |  | > 60 | -10 | > 60 | -4,5 mmHg |
| C[C@H](NC(=O)OC(C)(C)C)C(=O)N[C@H]1CO[C@H]2[C@@H]1OC[C@@H]2O[N+](=O)[O-] [Compound 7, N-[(t-Butoxy)carbonyl]-L-alanine amide of 5-amino-5-deoxy-2-O-nitro-1,4:3,6-dianhydro-L-iditol] | 96 | 17 | > 90 | -20 | > 90 | -2,0 mmHg |  |  |  |  |
| C[C@H](N)C(=O)N[C@H]1CO[C@H]2[C@@H]1OC[C@@H]2O[N+](=O)[O-] [Compound 8, L-Alanine amide of 5-amino-5-deoxy-2-O-nitro-1,4:3,6-dianhydro-L-iditol monohydrochloride] | 80 | 32 |  |  |  |  | > 150 | -30 |  |  |
| CC(C)[C@H](NC(=O)OC(C)(C)C)C(=O)N[C@H]1CO[C@H]2[C@@H]1OC[C@@H]2O[N+](=O)[O-] [Compound 9, N-[(t-Butoxy)carbonyl]-L-valine amide of 5-amino-5-deoxy-2-O-nitro-1,4:3,6-dianhydro-L-iditol] | 70 | 80 |  |  |  |  | > 60 | 5 | 0 | 0,0 mmHg |
| CC(C)(C)OC(=O)N[C@@H](Cc1ccccc1)C(=O)N[C@H]1CO[C@H]2[C@@H]1OC[C@@H]2O[N+](=O)[O-] [Compound 11, N-[(t-Butoxy)carbonyl]-L-phenylalanine amide of 5-amino-5-deoxy-2-O-nitro-1,4:3,6-dianhydro-L-iditol] | 100 | 25 | > 30 | -10 | 0 | 0,0 mmHg |  |  |  |  |
| N[C@@H](Cc1ccccc1)C(=O)N[C@H]1CO[C@H]2[C@@H]1OC[C@@H]2O[N+](=O)[O-] [Compound 12, L-phenylalanine amide of 5-amino-5-deoxy-2-O-nitro-1,4:3,6-dianhydro-L-iditol monohydrochloride] | 100 | 2.5 |  |  |  |  | > 240 | -30 |  |  |
| O=C(N[C@H]1CO[C@H]2[C@@H]1OC[C@H]2O[N+](=O)[O-])c1ccccc1SCc1ccccc1 [Compound 45] |  |  | > 120 | -10 | 0 | 0,0 mmHg |  |  |  |  |
